The values below come from patent US12577216B2, “Triazine benzoate compound and application thereof” (SHENYANG SINOCHEM AGROCHEMICALS R&D CO., LTD., priority 2020, dated 2026).

The subject of one assay is zinnia. The experiment in a line: Determination of herbicidal activity, post-emergence stem and leaf spray, zinnia. The class given is in vivo. Conditions: for Herbicidal activity for Zinnia, control effect %: Table 3 parallel comparison; for control effects on zinnia: 150 g a.i./hm^2, after emergence, visual 0-100%. The procedure:
(§1) Seeds of broadleaf weeds (zinnia and piemarker) or grassy weeds (green bristlegrass and barnyard grass) were respectively sown in a paper cup having a diameter of 7 cm and containing nutrient soil; after sowing, the seeds were covered with 1 cm of soil; the soil was pressed and watered, and then the seeds were cultivated in a greenhouse according to a conventional method; and stems and leaves were sprayed after 2-3 leaf stage of the weeds.
(§2) After the original medicinal acetone was dissolved, the test requires to use 1‰ of Tween 80 to stand in running water to prepare the solution to be tested with a required concentration. According to the design dose of the test, spray treatment was carried out on a track-type crop sprayer (designed and produced by British Engineer Research Ltd.) (spray pressure is 1.95 kg/cm^2, spray volume is 500 L/hm^2 and track speed is 1.48 km/h). The test was repeated for three times. The test material was treated and then placed in an operation hall. The medicinal liquid was naturally dried in the shade, and then was placed in a greenhouse and managed according to the conventional method. The response of the weeds to the drug was observed and recorded. After treatment, the control effects of the test drug on the weeds were visually inspected regularly, expressed by 0-100%. “0” represents no control effect and “100%” represents complete killing.

The subject of another assay is piemarker. The experiment in a line: Determination of herbicidal activity, post-emergence stem and leaf spray, piemarker. The class given is in vivo. Conditions: for Herbicidal activity for Piemarker, control effect %: Table 4 parallel comparison; for control effects on piemarker / pest or weed control at 150 g/ha: 150 g a.i./hm^2, after emergence, visual 0-100%; for pest or weed control at 150 g/ha: post-emergence, read-out: control effects on piemarker. The procedure: as §1, §2

In a further assay the test system is green bristlegrass. The experiment in a line: Determination of herbicidal activity, post-emergence stem and leaf spray, green bristlegrass. Format: in vivo. Conditions: for Herbicidal activity for Green Bristlegrass, control effect %: Table 5 parallel comparison. The protocol: as §1, §2
A further assay relates to barnyard grass. The experiment in a line: Determination of herbicidal activity, post-emergence stem and leaf spray, barnyard grass. Format: in vivo. Conditions: for Herbicidal activity for Barnyard Grass, control effect %: Table 6 parallel comparison. The protocol:
as §1, §2

In another assay the test system is Amaranthus retroflexus. Conditions: postemergence application, doses of 7.81 and 3.91 g/ha; cited from earlier work.
Another assay deals with Chenopodium album L. Conditions: postemergence application, doses of 7.81 and 3.91 g/ha; cited from earlier work.
In assay [1] the test system is Commelina benghalensis Linn. Conditions: postemergence application, doses of 7.81 and 3.91 g/ha; cited from earlier work.
In a further assay the test system is Setaria faberi. Conditions: postemergence application, doses of 7.81 and 3.91 g/ha; cited from earlier work.
[2] abbreviates: Table 2, 9.375 g a.i./hm^2, after emergence.
Where [3] appears, read: Table 2, 37.5 g a.i./hm^2, after emergence.
Where [4] appears, read: 9.375 g a.i./hm^2, after emergence.
Setting [5] is: 37.5 g a.i./hm^2, after emergence.
Where [6] appears, read: 2.34 g a.i./hm^2, after emergence.

The structures appear in SMILES notation.

As to `C=CCOC(=O)c1cc(-n2c(=O)n(C)c(=S)n(C)c2=O)c(F)cc1Cl` [KC1, reference compound], the “Zinnia, control effect %” value with zinnia (setting [2]) worked out at 50%; with zinnia (setting [3]), 60%. Also, the “Herbicidal activity for Zinnia, control effect %” value in the assay on zinnia (setting [4]) stood at 50%. Also, the results for the “Piemarker, control effect %” value with piemarker (setting [2]) and with piemarker (setting [3]) were 55% and 100%, respectively. Also, the “Herbicidal activity for Piemarker, control effect %” value with piemarker (setting [4]) amounted to 55%. Moreover, the “Green Bristlegrass, control effect %” value in the assay with green bristlegrass (setting [2]) was determined as 10%; in the assay on green bristlegrass (setting [3]), 25%. For the same compound, the “Herbicidal activity for Green Bristlegrass, control effect %” value with green bristlegrass (setting [4]) is 10%; with green bristlegrass (setting [5]), 25%. Moreover, the “Barnyard Grass, control effect %” value in the assay on barnyard grass (setting [2]) is recorded as 0%; with barnyard grass (setting [3]) it was 25%. Besides, the “Herbicidal activity for Barnyard Grass, control effect %” value in the assay on barnyard grass (setting [4]) is given as 0%; in the assay on barnyard grass (setting [5]), 25%. Also, in the assay with Amaranthus retroflexus, the “control of Amaranthus retroflexus” value is “effectively control”. The “control of Chenopodium album L.” value with Chenopodium album L. is recorded as “effectively control”. Also, in assay [1], the “control of Commelina benghalensis Linn.” value is recorded as “effectively control”. Besides, the “control of Setaria faberi” value in the assay on Setaria faberi is given as “effectively control”.

As to `CCOC(=O)[C@@H](C)OC(=O)c1cc(-n2c(=O)n(C)c(=S)n(C)c2=O)c(F)cc1Cl` [Compound 249], the “control effects on zinnia” value with zinnia is 100%. Moreover, the “Zinnia, control effect %” value in the assay on zinnia (setting [2]) turned out to be 50%; in the assay on zinnia (setting [3]) it was 70%. Moreover, the “control effects on piemarker” value in the assay on piemarker came to 100%. Moreover, the “Piemarker, control effect %” value is recorded as 65% with piemarker (setting [2]) and 100% in the assay with piemarker (setting [3]). The “Green Bristlegrass, control effect %” value in the assay on green bristlegrass (setting [2]) is on record as 35%; with green bristlegrass (setting [3]), 80%. Further, the “Barnyard Grass, control effect %” value in the assay with barnyard grass (setting [2]) is 30%; in the assay on barnyard grass (setting [3]), 55%.

`Cn1c(=S)n(C)c(=O)n(-c2cc(C(=O)OCC(=O)OCC3CCCO3)c(Cl)cc2F)c1=O` (centres unmarked) [Compound 246]: the “control effects on zinnia” value in the assay with zinnia stood at 100%. In addition, the “Herbicidal activity for Zinnia, control effect %” value with zinnia (setting [6]) and in the assay with zinnia (setting [4]) was 95% each time. Also, in the assay with piemarker, the “control effects on piemarker” value is listed as 100%. Also, the results for the “Herbicidal activity for Green Bristlegrass, control effect %” value in the assay on green bristlegrass (setting [4]) and in the assay with green bristlegrass (setting [5]) were 80% and 90%, respectively. Besides, the figures for the “Herbicidal activity for Barnyard Grass, control effect %” value with barnyard grass (setting [4]) and in the assay on barnyard grass (setting [5]) were 95% and 98%, respectively.

Turning to `CCOC(=O)[C@H](C)OC(=O)c1cc(-n2c(=O)n(C)c(=S)n(C)c2=O)c(F)cc1Cl` [Compound 250], the “control effects on zinnia” value in the assay on zinnia came out at 100%. Also, the “Zinnia, control effect %” value in the assay on zinnia (setting [2]) was 70%; with zinnia (setting [3]) it was 98%. For the same compound, the “Herbicidal activity for Zinnia, control effect %” value with zinnia (setting [6]) is recorded as 80%; in the assay on zinnia (setting [4]) it was 95%. Also, the “control effects on piemarker” value in the assay on piemarker is on record as 100%. In addition, the results for the “Piemarker, control effect %” value in the assay with piemarker (setting [2]) and in the assay on piemarker (setting [3]) were 98% and 100%, respectively. Also, the “Herbicidal activity for Piemarker, control effect %” value in the assay with piemarker (setting [6]) is on record as 85%; with piemarker (setting [4]), 100%. Also, the “Green Bristlegrass, control effect %” value in the assay with green bristlegrass (setting [2]) and in the assay on green bristlegrass (setting [3]) was 100% each time. In addition, the figures for the “Herbicidal activity for Green Bristlegrass, control effect %” value in the assay on green bristlegrass (setting [4]) and with green bristlegrass (setting [5]) were 70% and 90%, respectively. The “Barnyard Grass, control effect %” value with barnyard grass (setting [2]) is listed as 50%; with barnyard grass (setting [3]), 90%. Moreover, the “Herbicidal activity for Barnyard Grass, control effect %” value in the assay on barnyard grass (setting [4]) is recorded as 90%; with barnyard grass (setting [5]), 100%.

Turning to `CCOC(=O)C(C)OC(=O)c1cc(-n2c(=O)n(C)c(=S)n(C)c2=O)c(F)cc1Cl` (racemic) [Compound 248, 2-chloro-4-fluoro-5-(3,5-dimethyl-2,6-dioxo-4-thio-1,3,5-triazine-1-yl) benzoic acid (1-ethoxycarbonyl)ethyl ester], the “control effects on zinnia” value with zinnia is recorded as 100%. Moreover, the “Zinnia, control effect %” value in the assay on zinnia (setting [2]) is given as 60%; with zinnia (setting [3]), 90%. For the same compound, the “Herbicidal activity for Zinnia, control effect %” value worked out at 95% in the assay with zinnia (setting [6]) and 100% in the assay with zinnia (setting [4]). For the same compound, the results for the “Piemarker, control effect %” value in the assay on piemarker (setting [2]) and in the assay with piemarker (setting [3]) were 90% and 100%, respectively. The “Herbicidal activity for Piemarker, control effect %” value in the assay on piemarker (setting [6]) turned out to be 90%; in the assay on piemarker (setting [4]), 100%. The pest or weed control at 150 g/ha in the assay with piemarker came to 100%. Moreover, the “Green Bristlegrass, control effect %” value is recorded as 70% with green bristlegrass (setting [2]) and 95% with green bristlegrass (setting [3]). Moreover, the “Herbicidal activity for Green Bristlegrass, control effect %” value with green bristlegrass (setting [4]) worked out at 60%; in the assay with green bristlegrass (setting [5]), 85%. Besides, the “Barnyard Grass, control effect %” value with barnyard grass (setting [2]) stood at 95%; in the assay on barnyard grass (setting [3]), 100%. Moreover, the entries for the “Herbicidal activity for Barnyard Grass, control effect %” value in the assay with barnyard grass (setting [4]) and in the assay with barnyard grass (setting [5]) were 90% and 100%, respectively.

As to `Cn1c(=S)n(C)c(=O)n(-c2cc(C(=O)OCC(=O)OCCCl)c(Cl)cc2F)c1=O` [Compound 221], the “control effects on zinnia” value with zinnia was 100%. Moreover, the “Herbicidal activity for Zinnia, control effect %” value in the assay with zinnia (setting [6]) turned out to be 85%; in the assay with zinnia (setting [4]), 100%. In the assay with piemarker, the “control effects on piemarker” value was 100%. For the same compound, the “Herbicidal activity for Piemarker, control effect %” value with piemarker (setting [6]) is recorded as 85%; with piemarker (setting [4]), 100%. Also, the “Herbicidal activity for Green Bristlegrass, control effect %” value with green bristlegrass (setting [4]) was 80%; in the assay on green bristlegrass (setting [5]) it was 90%. The “Herbicidal activity for Barnyard Grass, control effect %” value in the assay with barnyard grass (setting [4]) turned out to be 98%; in the assay with barnyard grass (setting [5]), 100%.

As to `Cn1c(=S)n(C)c(=O)n(-c2cc(C(=O)OCC(=O)OCC3CC3)c(Cl)cc2F)c1=O` [Compound 241, 2-chloro-4-fluoro-5-(3,5-dimethyl-2,6-dioxo-4-thio-1,3,5-triazine-1-yl)benzoic acid (cyclopropylmethoxycarbonyl) methyl ester], the “control effects on zinnia” value in the assay with zinnia was 100%. Further, the “Herbicidal activity for Zinnia, control effect %” value in the assay on zinnia (setting [6]) and in the assay with zinnia (setting [4]) was 100% in each case. Moreover, the “Herbicidal activity for Piemarker, control effect %” value in the assay with piemarker (setting [6]) was 98%; in the assay on piemarker (setting [4]), 100%. Moreover, in the assay with piemarker, the pest or weed control at 150 g/ha was 100%. Moreover, the “Herbicidal activity for Green Bristlegrass, control effect %” value came to 80% in the assay on green bristlegrass (setting [4]) and 100% in the assay with green bristlegrass (setting [5]). In addition, the “Herbicidal activity for Barnyard Grass, control effect %” value was found to be 95% in the assay on barnyard grass (setting [4]) and 98% in the assay on barnyard grass (setting [5]).
